Data on 1 compound can be found in PMC10745882, “Investigation of Drug-Interaction Potential for Arthritis Dietary Supplements: Chondroitin Sulfate, Glucosamine, and Methylsulfonylmethane” (Molecules, 2023).

Series [1] deals with T1, CYP3A4(M) (Homo sapiens, UniProt P08684).
T1 construct: Pooled human liver microsomes were purchased from BD Gentest; tissue BD Gentest; host or cells: pooled human liver microsomes
The experiment in a line: CYP inhibition assay in human liver microsomes (LC-MS/MS cocktail), midazolam to 1-OH-midazolam. The format is in vitro ADME. On the procedure: For the experimental method, the reference method was used. […] The reaction mixture, excluding NGS, underwent pre-incubation at 37 °C for 5 min, followed by further incubation with NGS for 30 min in a water bath. […] Post incubation, the reaction was halted by adding 50 µL ice-cold 1% formic acid acetonitrile. After centrifugation at 13,200 rpm for 5 min, the supernatant was collected from the sample and subjected to analysis via an LC-MS/MS system. All experiments were performed in triplicate.
For the experimental method, the reference method was used. […] The HPLC mobile phases comprised (A) 0.1% formic acid and (B) 0.1% formic acid in 90% acetonitrile. […] The total run time was 11.0 min, and the injection volume was 5 µL. Mass detection was conducted in the positive ion mode using multiple reaction monitoring (MRM). Specific MRM transitions for each analyte are detailed in Table S4.

Series [2] concerns the target T2, CYP2C19 (Homo sapiens, UniProt P33261).
T2 construct: Pooled human liver microsomes were purchased from BD Gentest; tissue BD Gentest; host or cells: pooled human liver microsomes
The experiment in a line: CYP inhibition assay in human liver microsomes (LC-MS/MS cocktail), mephenytoin to 4-OH-mephenytoin. It counts as in vitro ADME. On the procedure: For the experimental method, the reference method was used. Briefly, incubation mixtures were composed of 0.5 mg/mL human liver microsomes; varying concentrations of CS in DW (0.1, 0.3, 1, 3, 10, 30, 100, and 200 µM) or MSM in DW (0.1, 0.3, 1, 3, 10, 30, 100, 300, and 1000 µM) or GCS in DMSO (0.1, 0.3, 1, 3, 10, 30, 100, 300, and 1000 µM); a substrate mixture in DMSO (40 µM phenacetin for CYP1A2; 2.5 µM coumarin for CYP2A6; 80 µM bupropion for CYP2B6; 10 µM diclofenac for CYP2C9; 80 µM [±]-mephenytoin for CYP2C19; 5 µM dextromethorphan for CYP2D6; 2.5 µM midazolam and 30 µM testosterone for CYP3A4); and an NADPH generating system (NGS; 0.1 M glucose-6-phosphate, 10 mg/mL β-NADP^+, and 1 U/mL glucose-6-phosphate dehydrogenase) in a total volume of 200 µL potassium phosphate buffer (0.1 M, pH 7.4). The reaction mixture, excluding NGS, underwent pre-incubation at 37 °C for 5 min, followed by further incubation with NGS for 30 min in a water bath. Well-established selective CYP inhibitors were employed as positive controls (40 µM ketoconazole for CYP3A4, 50 µM furafyllin for CYP1A2, 10 µM quinidine for CYP2D6, 125 µM ticlopidine for CYP2C19 and CYP2B6, 10 µM 8-methoxsalen for CYP2A6, and 10 µM sulfaphenazole for CYP2C9). Post incubation, the reaction was halted by adding 50 µL ice-cold 1% formic acid acetonitrile. After centrifugation at 13,200 rpm for 5 min, the supernatant was collected from the sample and subjected to analysis via an LC-MS/MS system. All experiments were performed in triplicate.
For the experimental method, the reference method was used. The LC-MS/MS system utilized in this study consisted of an Agilent 1260 binary pump HPLC system coupled with the Agilent 6460 Triple Quadrupole mass spectrometer (Agilent Technologies, Santa Clara, CA, USA), featuring an electrospray ionization source. Chromatographic separation was achieved using a Fortis C8 column (2.1 × 100 mm, 5.0 µm; Fortis Technologies Ltd., Neston, UK). The HPLC mobile phases comprised (A) 0.1% formic acid and (B) 0.1% formic acid in 90% acetonitrile. A gradient elution method was employed with an initial solvent B concentration of 15% and a flow rate of 0.25 mL/min. […] The total run time was 11.0 min, and the injection volume was 5 µL. Mass detection was conducted in the positive ion mode using multiple reaction monitoring (MRM). Specific MRM transitions for each analyte are detailed in Table S4.

For series [3] the following is noted: cited from earlier work.

T1 sequence (P08684 whole entry): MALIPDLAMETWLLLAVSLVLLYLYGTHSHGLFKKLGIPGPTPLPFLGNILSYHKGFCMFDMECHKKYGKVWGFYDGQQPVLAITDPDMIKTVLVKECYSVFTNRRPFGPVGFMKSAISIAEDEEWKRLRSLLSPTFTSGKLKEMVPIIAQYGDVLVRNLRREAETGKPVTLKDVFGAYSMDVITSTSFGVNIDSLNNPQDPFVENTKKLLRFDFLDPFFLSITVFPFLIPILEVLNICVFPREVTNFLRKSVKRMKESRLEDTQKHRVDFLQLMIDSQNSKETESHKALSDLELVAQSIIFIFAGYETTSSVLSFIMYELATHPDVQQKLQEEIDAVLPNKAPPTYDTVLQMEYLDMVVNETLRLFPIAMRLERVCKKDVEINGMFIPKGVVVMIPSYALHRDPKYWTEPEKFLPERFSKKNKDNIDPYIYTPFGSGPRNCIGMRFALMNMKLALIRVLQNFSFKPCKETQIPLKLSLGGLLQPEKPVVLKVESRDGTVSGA
T2 sequence (P33261 whole entry): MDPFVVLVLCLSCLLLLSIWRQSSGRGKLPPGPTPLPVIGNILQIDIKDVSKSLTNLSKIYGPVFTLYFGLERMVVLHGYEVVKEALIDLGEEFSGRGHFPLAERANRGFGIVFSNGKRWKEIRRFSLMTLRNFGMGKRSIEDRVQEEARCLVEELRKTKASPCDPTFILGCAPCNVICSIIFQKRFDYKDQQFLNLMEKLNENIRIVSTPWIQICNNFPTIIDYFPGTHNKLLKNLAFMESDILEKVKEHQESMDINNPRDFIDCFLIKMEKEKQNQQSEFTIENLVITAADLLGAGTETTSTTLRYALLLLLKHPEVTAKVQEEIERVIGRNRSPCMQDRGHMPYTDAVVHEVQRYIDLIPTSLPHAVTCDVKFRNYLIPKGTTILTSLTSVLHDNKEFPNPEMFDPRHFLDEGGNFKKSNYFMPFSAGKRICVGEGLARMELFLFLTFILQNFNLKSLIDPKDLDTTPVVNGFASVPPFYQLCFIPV

Turning to `N[C@H]1C(O)O[C@H](CO)[C@@H](O)[C@@H]1O` (stereo partly drawn) [GCS, glucosamine], the “Remaining Activities (% of Control, n = 3)” value in series [1] (test substance 0.3 μM) is 104.4 ± 13.5 % of Control; in series [1] (test substance 1 μM) it was 103.5 ± 3.2 % of Control; in series [1] (test substance 3 μM), 98.3 ± 1.9 % of Control; in series [1] (test substance 10 μM), 97.2 ± 1.5 % of Control; in series [1] (test substance 30 μM), 96.9 ± 6.1 % of Control; in series [1] (test substance 100 μM), 95.2 ± 8.2 % of Control. Also, the “Remaining Activities (% of Control, n = 3)” value in series [1] (test substance 300 μM) is reported as 91.0 ± 3.3 % of Control; in series [1] (test substance 1000 μM), 88.7 ± 12.1 % of Control; in series [2] (test substance 0.3 μM), 128.4 ± 27.9 % of Control; in series [2] (test substance 1 μM) it was 102.5 ± 3.0 % of Control; in series [2] (test substance 3 μM), 102.6 ± 8.8 % of Control; in series [2] (test substance 10 μM), 101.9 ± 4.3 % of Control. The “Remaining Activities (% of Control, n = 3)” value in series [2] (test substance 30 μM) is on record as 90.5 ± 8.7 % of Control; in series [2] (test substance 100 μM), 100.3 ± 3.7 % of Control; in series [2] (test substance 300 μM), 95.5 ± 5.6 % of Control; in series [2] (test substance 1000 μM), 88.7 ± 7.3 % of Control. The “cases of INR elevation when coumarin anticoagulants were combined with GCS” value in series [3] (EFSA scientific opinion) was 40 cases. Further, the “INR on co-administration with warfarin” value in series [3] (interaction case, co-administration of CS and GCS with warfarin) is “elevated INR”.
